Key:
[1] = system: tau; assay: Tau phosphorylation in N2a cells by Western blotting; format: cell-based; settings: 0.8 and 1.6 μM, 24 h
Method: N2a cells were treated with 1011 at the indicated concentrations for 24 h. (A) the levels of β-catenin, tau and tau phosphorylation were examined by Western blotting. (B) the intensity of the tau phosphorylation bands were quantified and normalized to the corresponding signal for total tau. The results represented in the histograms are shown as the mean±SD and are the average of 3 independent experiments. *P<0.05, **P<0.01 versus corresponding control value.
Western blotting: Cells in 6-well plates were lysed in 0.5 ml of lysis buffer (phosphate-buffered saline containing 1% Triton X-100, 1× Proteinase inhibitor cocktail Complete, and 1 mM PMSF) at 4° C. for 15 min. Equal quantities of protein were subjected to SDS-PAGE under reducing conditions. Following transfer to immobilon-P transfer membrane, successive incubations with a primary antibody, and a horseradish peroxidase-conjugated secondary antibody or IRDye® 680RD goat anti-rabbit/mouse secondary antibodies were carried out for 60-120 min at room temperature. The immunoreactive proteins were then detected using the ECL system or the Odyssey infrared imaging system (LI-COR). Films showing immunoreactive bands were scanned by Hp Scanjet 5590.

[2] = Pharmacokinetic study in Balb/c mice following intravenous administration; format: in vivo; settings: male Balb/c mice, IV 2 mg/kg
Method: (A) Plasma and brain concentration—time curves of 1015 in male Balb/c mice following intravenous (2 mg/kg) administration (n=4 at each time point). (B) in vivo pharmacokinetic parameters of 1015. B/P: brain/plasma concentration ratio (30 min after IV injection with 2 mg/kg) calculated using 1 g/mL brain density.
Pharmacokinetic study of compound 1015 in Balb/c mice following intravenous administration: Male Balb/c mice (11-12 weeks old, body weight 21.9 to 31.3 g and average body weight across all groups 25.6 g, SD=2.19 g) were used in this study. The animals were randomly assigned to the treatment groups before the pharmacokinetic study; all animals were fasted for 4 h before intravenous injection of 1015 at 2 mg/kg dissolved in Kolliphor HS-physiological saline (20%:80%). Eight time points (5, 15, 30, 60, 120, 240, 480 and 1440 min) were set for this pharmacokinetic study. Each of the time point treatment group included 4 animals. There was also a control group of 2 animals. Mice were injected IV with 2,2,2-tribromoethanol at the dose of 150 mg/kg prior to drawing the blood. Blood collection was performed from the orbital sinus in microtainers containing K2EDTA. Animals were sacrificed by cervical dislocation after blood samples collection. Brain and plasma samples were immediately processed, flash-frozen and stored at −70° C. until subsequent analysis.
Plasma samples (50 μl) were mixed with 200 μl of IS solution. After mixing by pipetting and centrifuging for 4 min at 6000 rpm, 2 μl of each supernatant was injected into LC-MS/MS system. Solution of compound IS-22665-01 (200 ng/ml in acetonitrile-methanol mixture, 1:1, v/v) was used as internal standard (IS) for quantification of 1015 in plasma samples. Brain samples (100 mg±1 mg) were dispersed in 500 μl of IS200(80) using zirconium oxide beads (150 mg±5 mg) in The Bullet Blender® homogenizer for 60 seconds at speed 8. […] Solution of compound IS-22665-01 (200 ng/ml in water-acetonitrile-methanol mixture, 2:4:4, v/v/v) was used as internal standard (IS200(80)) for quantification of 1015 in brain samples. […]

[3] = system: tau; assay: Tau phosphorylation in human iPSC-derived neurons (Western blot AT8/HT7); format: cell-based; settings: 0.4 μM, 48 h
Method: Human iPSC-derived neurons were treated with 1015 (0.4 μM) for 48 h, and the mRNA levels of axin2 (B), neuroD1 (C) and SOX2 (D) were determined by qPCR. All the values are the average of three independent experiments with the SE values indicated by error bars. * P<0.05, ** P<0.01 verse corresponding control. (E) Human iPSC-derived neurons were treated with 1015 (0.4 μM) for 48 h, and the levels of phopspho-tau (p-tau) and total tau were determined by Western blotting with specific antibodies AT8 and HT7, respectively. This experiment is a representative of two such experiments performed with similar data.
NeuroD1, a proneural basic helix-loop-helix (bHLH) transcription factor, plays a critical role in CNS development, and is important for survival of neuronal progenitor cells. There is a TCF/LEF regulatory element in the Neurod1 promoter, and NeuroD1 is a specific target of Wnt/β-catenin signaling. […] In addition, 1015 also induces neural stem cell marker SOX2 expression in human iPSC-derived neurons ([…]). Importantly, 1015 suppresses tau phosphorylation in human iPSC-derived neurons (FIG. 16 at D).

[4] = system: PS19 mice; assay: Efficacy study in PS19 mice (tauopathy model); format: in vivo; settings: IP 15 mg/kg once daily, 8 weeks
Method: PS19 mice at 33 weeks of age were treated with 1015 (IP, 15 mg/kg) or vehicle [Kolliphor HS-physiological saline (20%:80%)] by a once daily dose schedule for 8 weeks (5 injections per week). (A) Body weight changes during the course of treatment were assessed. (B) The level of Wnt specific target neuroD1 in cortex was determined by qPCR. All the values are the average of from 5-7 mice with the SE values indicated by error bars.* P<0.05, * P<0.01 verse Non-Tg treated with vehicle or PS19 mice treated with vehicle.
(A) PS19 mice at 33 weeks of age were treated with 1015 (IP, 15 mg/kg) or vehicle [Kolliphor HS-physiological saline (20%:80%)] by a once daily dose schedule for 8 weeks (5 injections per week). The levels of tau phosphorylation (p-tau) and total tau in cortex were determined by Western blotting with p-tau antibody AT8, p-tau antibody AT180, and tau antibody HT7, respectively. (B) The intensities of p-tau bands were quantified and normalized to the corresponding signal for actin. The results represented in the histograms are shown as the mean±SE, n=5.
PS19 mice at 33 weeks of age were treated with 1015 (IP, 15 mg/kg) or vehicle [Kolliphor HS-physiological saline (20%:80%)] by a once daily dose schedule for 8 weeks (5 injections per week). (A-D) The levels of cytokines IL6, TNFa, TGF1b and IL1b in cortex were determined by qPCR. All the values are the average of from 5-7 mice with the SE values indicated by error bars. * P<0.05, * P<0.01, ** P<0.001.
1015 activates Wnt/β-catenin signaling and prevents body weight loss in PS19 mice: PS19 is a widely used tauopathy model which recapitulates many AD-related phenotypes. […] Therefore, the PS19 mouse model was used for efficacy studies. There was a noticeable drop in weight in all groups after initiation of daily dosing in each group, which is most likely a consequence of the sudden daily manipulation of the mice (FIG. 17 at A).

Row | SMILES | tau phosphorylation [1] | concentration in brain versus plasma [2] | half-life (t1/2), brain versus plasma [2] | Kp at 30 min ([2]; mouse, brain/plasma, 30 min after injection, read-out: brain concentration/plasma concentration ratio (B/P)) | tau phosphorylation [3] | body weight loss ([4]; 5 injections per week) | tau phosphorylation in cortex ([4]; AT8 and AT180) | neuroD1 expression in brain ([4]; cortex, qPCR) | neuroinflammatory cytokine expression (IL6, TNFa, TGF1b, IL1b) ([4]; cortex, qPCR)
1 | CC1CCCC(C)N1CCNC(=O)c1ccc(C(=O)Nc2ccccc2N)nc1 (stereo not drawn) [Compound 1011] | suppressed |  |  |  |  |  |  |  | 
2 | Nc1ccccc1NC(=O)c1ccc(C(=O)NCC2CCN2C2CCCC2)cn1 (stereo not drawn) [Compound 1015] |  | much higher concentration in brain than in plasma | much longer in brain than in plasma | 5.6 | suppresses | significantly prevented | significantly suppresses | restored, but not over induced | inhibited
